Structures are written as SMILES.

This experiment deals with T1, recombinant, membrane-bound mPGES-1 (Homo sapiens, UniProt O14684).
T1 sequence (O14684 1-152): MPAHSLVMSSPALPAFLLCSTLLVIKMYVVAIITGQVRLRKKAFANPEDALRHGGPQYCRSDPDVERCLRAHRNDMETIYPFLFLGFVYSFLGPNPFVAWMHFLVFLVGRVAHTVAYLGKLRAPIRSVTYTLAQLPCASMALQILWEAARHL
Kind of experiment: Thiobarbituric acid assay (TBA-MDA assay), inhibition of mPGES-1. The settings on record: remaining PGH2 measured at 535 nm. It is filed as biochemical. An excerpt:
Malondialdehyde is a product of lipid peroxidation and reacts with thiobarbituric acid forming a red product that absorbs at 535 nm (W. G. Niehaus, Jr and B. Samuelsson, Eur. J. Biochem 6, 126 (1968). The extinction coefficient of the TBA-MDA conjugate is 1.56×10^5 M^−1 cm^−1 (E. D. Wills. Biochem. J. 113, 315 (1969).
The method used for detection of inhibition of mPGES-1 is based on the detection of the amount of remaining PGH2. This method was described more than 20 years ago by Basevich et al (Bioorg. Khim. 1983, 9(5), 658-665.
The assay used was a modified variant and used citric acid instead of the TCA-TBA-HCl reagent described in the original assay. In this assay recombinant, membrane-bound mPGES-1 was incubated with PGH2. The reaction was stopped by adding citric acid with a final pH of 3 and a large excess of FeCl2 (20 mM) to convert any remaining PGH2 into MDA and […]. TBA reagent was finally added (0.67%) and the samples were heated at 80° C. for 30 min. The absorbance of the conjugate was measured at 535 nm.
The product of mPGES-1 (PGE2) was not measured directly in this assay, but rather the remaining substrate (PGH2) indirectly by adding FeCl2 that converts PGH2 into […] and 12-HHT. As a positive control a known mPGES-1 inhibitor, MK-886, was used and the new inhibitors were compared with the inhibition of MK-886 (% of MK-886 inhibition).
One may read the IC50 as the concentration at which inhibition is half-maximal. On to `C[C@@H](NC(=O)c1cccc(NC(=O)c2ccccc2F)c1)c1cccc2ccccc12` [Compound 88, 2-Fluoro-N-[3-((R)-1-naphthalen-1-yl-ethylcarbamoyl)-phenyl]-benzamide], for which the IC50 was found to be 2300 nM.
Regarding `O=C(Nc1ccc2ccccc2n1)c1cccc(NC(=O)c2ccccc2-c2cccs2)c1` [Compound 49, 3-(2-Thiophene-2-yl-benzoylamino)-N-quinolin-2-yl-benzamide], the IC50 was 1200 nM.
Then `O=C(NC1CCCCCC1)c1cccc(NC(=O)c2ccccc2C(F)(F)F)c1` [Compound 56, N-(3-Cycloheptylcarbamoyl-phenyl)-2-trifluoromethylbenzamide], with 660 nM.
As for `C[C@H](NC(=O)c1cccc(NC(=O)c2c(Cl)cccc2Cl)c1)c1cccc2ccccc12` [Compound 74, 2,6-Dichloro-N-[3-((S)-1-naphthalen-1-yl-ethylcarbamoyl)-phenyl]-benzamide], the IC50 came to 470 nM.
Then `O=C(Nc1ccc(-c2ccccc2)cn1)c1cccc(NCc2ccccc2C(F)(F)F)c1` [Compound 166, 3-[2-(Trifluoromethyl)-benzylamino]-N-(5-phenyl-pyridine-2-yl)-benzamide], with 53 nM.
To `O=C(NCc1cccc2ccccc12)c1cccc(NCc2ccccc2Br)c1` [Compound 122, 3-(2-Bromo-benzylamino)-N-naphthalen-1-ylmethyl-benzamide] belongs 1000 nM.
Then `O=C(Nc1ccccn1)c1cccc(NC(=O)c2ccccc2Cl)c1` [Compound 12, 3-(2-Chloro-benzoylamino)-N-(pyridine-2-yl)-benzamide], with 1300 nM.
In the case of `Cc1ccccc1C(=O)Nc1cccc(C(=O)NC2CCCCCC2)c1` [Compound 57, N-(3-Cycloheptylcarbamoyl-phenyl)-2-methylbenzamide], the half-maximal inhibitory concentration (IC50) amounted to 390 nM.
To `O=C(Nc1cccc(C(=O)NC2CCCCCC2)c1)c1cc(C(F)(F)F)cc(C(F)(F)F)c1` [Compound 54, N-(3-Cycloheptylcarbamoyl-phenyl)-3,5-bis-trifluoromethyl-benzamide] belongs 1200 nM.
Take `C[C@@H](NC(=O)c1cccc(NC(=O)c2ccccc2I)c1)c1cccc2ccccc12` [Compound 96, 2-Iodo-N-[3-((R)-1-naphthalen-1-A-ethylcarbamoyl)-phenyl]-benzamide]: the IC50 was determined as 230 nM.
Then `O=C(NC1CCCc2ccccc21)c1cccc(NC(=O)c2ccccc2Cl)c1` (centres unmarked) [Compound 35, 3-(2-Chloro-benzoylamino)-N-(1,2,3,4-tetrahydro-naphthalen-1-yl)-benzamide], with 860 nM.
To `COc1ccccc1C(=O)Nc1cccc(C(=O)Nc2ccc3ccccc3n2)c1` [Compound 41, 3-(2-Methoxy-benzoylamino)-N-quinolin-2-yl-benzamide] belongs 3700 nM; to `Cc1ccccc1C(=O)Nc1cccc(C(=O)Nc2ccc3ccccc3n2)c1` [Compound 44, 3-(2-Methyl-benzoylamino)-N-quinolin-2-yl-benzamide], 650 nM; to `O=C(Nc1nc2ccccc2[nH]1)c1cccc(NC(=O)c2ccccc2Cl)c1` [Compound 13, 3-(2-Chloro-benzoylamino)-N-(1H-benzimidazol-2-yl)-benzamide], 1300 nM.
With `C[C@@H](NC(=O)c1cccc(NC(=O)c2ccccc2Br)c1)c1cccc2ccccc12` [Compound 87, 2-Bromo-N-[3-((R)-1-naphthalen-1-yl-ethylcarbamoyl)-phenyl]-benzamide], the IC50 amounted to 380 nM.
To `O=C(NCc1cccc2c1OCCO2)c1cccc(NC(=O)c2ccccc2C(F)(F)F)c1` [Compound 148, N-(2,3-dihydro-benzo[1,4]dioxin-5-ylmethyl)-3-(2-trifluoromethyl-benzoylamino)-benzamide] belongs 990 nM; to `O=C(NC1CCCCCC1)c1cccc(NC(=O)c2ccccc2Cl)c1` [Compound 36, 3-(2-Chloro-benzoylamino)-N-cycloheptyl-benzamide], 330 nM; to `O=C(NCc1ccccc1C(F)(F)F)c1cccc(NC(=O)c2ccccc2C(F)(F)F)c1` [Compound 134, 3-(2-Trifluoromethyl-benzoylamino)-N-(2-trifluoromethyl-benzyl)-benzamide], 70 nM.
Then `C[C@H](NC(=O)c1cccc(NC(=O)c2ccccc2Cl)c1)c1cccc2ccccc12` [Compound 85, 2-Chloro-N-[3-((S)-1-naphthalen-1-yl-ethylcarbamoyl)-phenyl]-benzamide], with 370 nM; and `C[C@H](NC(=O)c1cccc(NC(=O)c2ccccc2F)c1)c1cccc2ccccc12` [Compound 73, 2-Fluoro-N-[3-((S)-1-naphthalen-1-yl-ethylcarbamoyl)-phenyl]-benzamide], with 1800 nM.
For `CCCCNC(=O)c1cccc(NC(=O)c2ccccc2Cl)c1` [Compound 4, 3-(2-Chloro-benzoylamino)-N-butyl-benzamide], the half-inhibitory concentration (IC50) was determined as 3900 nM.
Then `O=C(NC1CCCCCC1)c1cccc(NC(=O)c2ccccc2I)c1` [Compound 69, N-(3-Cycloheptylcarbamoyl-phenyl)-2-iodo-benzamide], with 260 nM; and `O=C(NCc1ccccc1N1CCOCC1)c1cccc(NC(=O)c2ccccc2C(F)(F)F)c1` [Compound 149, N-(2-morpholin-4-yl-benzyl)-3-(2-trifluoromethyl-benzoylamino)-benzamide], with 2000 nM.
In the case of `O=C(Nc1ccc2cccc(O)c2n1)c1cccc(NC(=O)c2ccccc2C(F)(F)F)c1` [Compound 140, N-(8-hydroxy-quinolin-2-yl)-3-(2-trifluoromethyl-benzoylamino)-benzamide], the IC50 is 1900 nM.
Take `O=C(NCc1ccccc1Cl)c1cccc(NC(=O)c2ccccc2C(F)(F)F)c1` [Compound 143, N-(2-Chloro-benzyl)-3-(2-trifluoromethyl-benzoylamino)-benzamide]: the IC50 was 220 nM.
To `COc1cccc(OC)c1C(=O)Nc1cccc(C(=O)Nc2ccc3ccccc3n2)c1` [Compound 42, 3-(2,6-Dimethoxy-benzoylamino)-N-quinolin-2-yl-benzamide] belongs 3100 nM.
To `C[C@@H](NC(=O)c1cccc(NC(=O)c2c(Cl)cccc2Cl)c1)c1cccc2ccccc12` [Compound 89, 2,6-Dichloro-N-[3-((R)-1-naphthalen-1-yl-ethylcarbamoyl)-phenyl]-benzamide] belongs 600 nM.
Then `COc1cccc(OC)c1C(=O)Nc1cccc(C(=O)N[C@@H](C)c2cccc3ccccc23)c1` [Compound 76, 2,6-Dimethoxy-N-[3-((S)-1-naphthalen-1-yl-ethylcarbamoyl)-phenyl]-benzamide], with 4100 nM; and `O=C(Nc1ccc2ccccc2n1)c1cccc(NC(=O)c2ccccc2I)c1` [Compound 46, 3-(2-Iodo-benzoylamino)-N-quinolin-2-yl-benzamide], with 290 nM; and `O=C(NC1CCCCCC1)c1cccc(NC(=O)c2ccccc2Br)c1` [Compound 68, 2-Bromo-N-(3-cycloheptylcarbamoyl-phenyl)-benzamide], with 180 nM.
For `C[C@@H](NC(=O)c1cccc(NC(=O)c2ccccc2Cl)c1)c1cccc2ccccc12` [Compound 101, 2-Chloro-N-[3-((R)-1-naphthalen-1-yl-ethylcarbamoyl)-phenyl]-benzamide], the IC50 came to 290 nM.
As for `O=C(NC(c1ccccc1)c1ccccc1)c1cccc(NC(=O)c2ccccc2Cl)c1` [Compound 6, 3-(2-Chloro-benzoylamino)-N-(diphenylyl-methyl)-benzamide], the IC50 came out at 300 nM.
